These results are taken from patent US11168078B2, “Sulfoximine, sulfonimidamide, sulfondiimine and diimidosulfonamide compounds as inhibitors of indoleamine 2,3-dioxygenase” (Shanghai Fochon Pharmaceutical Co., Ltd., priority 2016, dated 2021).

For orientation: IC50 means the concentration that gives 50% inhibition.

The target of one test is T1, IDO (Homo sapiens, UniProt P14902).
T1 construct: endogenous in cells; host or cells: HeLa cells stimulated with recombinant human interferon-gamma
T1 sequence (P14902 whole entry): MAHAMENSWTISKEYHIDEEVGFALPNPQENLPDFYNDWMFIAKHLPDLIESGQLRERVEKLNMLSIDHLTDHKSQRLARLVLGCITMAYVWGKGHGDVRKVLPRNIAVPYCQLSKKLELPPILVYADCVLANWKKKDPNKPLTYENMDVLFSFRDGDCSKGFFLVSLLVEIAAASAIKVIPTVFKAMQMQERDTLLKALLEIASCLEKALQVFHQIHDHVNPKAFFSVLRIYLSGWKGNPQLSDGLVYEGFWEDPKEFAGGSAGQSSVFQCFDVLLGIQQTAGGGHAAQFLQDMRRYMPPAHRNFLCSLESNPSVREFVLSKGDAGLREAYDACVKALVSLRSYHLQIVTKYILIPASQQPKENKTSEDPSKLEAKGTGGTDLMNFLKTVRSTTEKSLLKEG
In words: IDO Cell-Based NEK Green Assay (NFK Green, N-formyl kynurenine level). Conditions: Hela cells, 1 mM L-Tryptophan, 100 ng/mL recombinant human interferon-gamma, 2 days, NFK Green fluorescence. The method, then:
IDO Cell-Based NEK Green Assay
Materials: RPMI 1640 (phenol red free) (Invitrogen Cat. No. 11835030), Fetal Bovine Serum (Invitrogen Cat. No. 10099141), Penicillin-Streptomycin (Invitrogen Gibco Cat. No. 15140-122), Cellular assay kit (NTRC, Cat. No. NTRC-GSCell-1K), DMSO (Sigma, Cat. No. D2650), 384 wells_compound plate (Greiner, Cat. No. 781280), 384 wells_assay plate (Greiner, Cat. No. 781091)
The concentrations of test compounds varied from 5 μM to 0.76 nM with 3-fold dilution, 10 points, in duplicates.
Hela cells were seeded at 8,000 cells per well with RPMI/phenol red free media containing 10% FBS in a 384-well tissue culture plate. Mixture of compounds and 1 mM L-Tryptophan were added to cells; and then the recombinant human interferon-gamma was added at the final concentration of 100 ng/mL to activate IDO signaling. The cells were incubated for 2 days in 37° C. incubator with 5% CO2. After that, NFK Green was used to detect the N-formyl kynurenine level by following the commercial kit instruction. The fluorescent signal was measured by Envision plate Reader (excitation, 400/25; emission, 510/20). Curves are fit by XLFIT5 as % inhibition vs. log [compound concentration] using a 4 parameters logistic model 205.
(§1) Select compounds prepared as described above were assayed according to the biological procedures described herein.
For the compound `C#Cc1cc(N/C(=N\O)c2nonc2NCCS(C)(=N)=N)ccc1F` [Example 43, (Z)-4-({2-[diimino(methyl)-λ^6-sulfanyl]ethyl}amino)-N-(3-ethynyl-4-fluorophenyl)-N′-hydroxy-1,2,5-oxadiazole-3-carboximidamide], the IC50 amounted to 238 nM.
For the compound `CN=S(C)(=O)NCCNc1nonc1/C(=N/O)Nc1ccc(F)c(Cl)c1` (centres unmarked) [Example 22, (Z)-N-(3-chloro-4-fluorophenyl)-N′-hydroxy-4-((2-(N′-methylmethylsulfonoamidimidamido)ethyl)amino)-1,2,5-oxadiazole-3-carboximidamide], the IC50 came out at 27.5 nM.
Turning to `CCS(=N)(=O)NCCNc1nonc1/C(=N/O)Nc1ccc(F)c(Cl)c1` (centres unmarked) [Example 25, (Z)-N-(3-chloro-4-fluorophenyl)-4-((2-(ethylsulfonoamidimidamido)ethyl)amino)-N′-hydroxy-1,2,5-oxadiazole-3-carboximidamide], the IC50 came to 17.5 nM.
The same measure, in the same setting: the figure for `N=S(=N)(CCNc1nonc1/C(=N/O)Nc1ccc(F)c(Br)c1)C1CC1` [Example 39, (Z)-N-(3-bromo-4-fluorophenyl)-4-{[2-(cyclopropyldiimino-λ^6-sulfanyl)ethyl]amino}-N′-hydroxy-1,2,5-oxadiazole-3-carboximidamide] is 52.3 nM.
With `CS(=N)(=N)CCNc1nonc1/C(=N/O)Nc1ccc(F)c(Cl)c1` [Example 35, (Z)-N-(3-chloro-4-fluorophenyl)-4-({2-[diimino(methyl)-λ^6-sulfanyl]ethyl}amino)-N′-hydroxy-1,2,5-oxadiazole-3-carboximidamide], the IC50 was 33.7 nM.
Take `CS(=N)(=N)CCNc1nonc1/C(=N/O)Nc1ccc(F)c(Br)c1` [Example 20, (Z)—N-(3-bromo-4-fluorophenyl)-4-({2-[diimino(methyl)-λ^6-sulfanyl]ethyl}amino)-N′-hydroxy-1,2,5-oxadiazole-3-carboximidamide]: the IC50 is 12.2 nM.
Consider `N=S(=N)(CCO)CCNc1nonc1/C(=N/O)Nc1ccc(F)c(Br)c1` [Example 40, (Z)-N-(3-bromo-4-fluorophenyl)-N′-hydroxy-4-({2-[(2-hydroxyethyl)diimino-λ^6-sulfanyl]ethyl}amino)-1,2,5-oxadiazole-3-carboximidamide], for which the IC50 turned out to be 39.1 nM.
Same read-out and setting: the figure for `CS(=N)(=N)CCCNc1nonc1/C(=N/O)Nc1ccc(F)c(Br)c1` [Example 36, (Z)-N-(3-bromo-4-fluorophenyl)-4-({3-[diimino(methyl)-λ^6-sulfanyl]propyl}amino)-N′-hydroxy-1,2,5-oxadiazole-3-carboximidamide] is 46.7 nM; for `CCS(=O)(=NC)NCCNc1nonc1/C(=N/O)Nc1ccc(F)c(Cl)c1` (centres unmarked) [Example 23, (Z)-N-(3-chloro-4-fluorophenyl)-N′-hydroxy-4-((2-(N′-methylethylsulfonoamidimidamido)ethyl)amino)-1,2,5-oxadiazole-3-carboximidamide] it is 33.2 nM.
With `O=S1(=NCCCNc2nonc2/C(=N/O)Nc2ccc(F)c(Cl)c2)CCC1` [Example 32, (Z)-N-(3-chloro-4-fluorophenyl)-N′-hydroxy-4-((3-((1-oxido-1λ^6-thietan-1-ylidene)amino)propyl)amino)-1,2,5-oxadiazole-3-carboximidamide], the IC50 turned out to be 64.4 nM.
Turning to “(Z)—N-(3-ethynyl-4-fluorophenyl)-N′-hydroxy-4-((2-(methylsulfonoamidimidamido)ethyl)amino)-1,2,5-oxadiazole-3-carboximidamide [Example 19]”, the IC50 is 13.3 nM.
The same measure, in the same setting: the figure for `CS(=N)(=O)NCCCNc1nonc1/C(=N/O)Nc1ccc(F)c(Cl)c1` (centres unmarked) [Example 26, (Z)-N-(3-chloro-4-fluorophenyl)-N′-hydroxy-4-[(3-methanesulfonoimidamidopropyl)amino]-1,2,5-oxadiazole-3-carboximidamide] is 14 nM; for `CCS(=N)(=N)CCCNc1nonc1/C(=N/O)Nc1ccc(F)c(Br)c1` [Example 37, (Z)-N-(3-bromo-4-fluorophenyl)-4-{[3-(ethyldiimino-λ^6-sulfanyl)propyl]amino}-N′-hydroxy-1,2,5-oxadiazole-3-carboximidamide] it is 20.5 nM.
`COCCS(=N)(=N)CCNc1nonc1/C(=N/O)Nc1ccc(F)c(Br)c1` [Example 41, (Z)-N-(3-bromo-4-fluorophenyl)-4-({2-[diimino(2-methoxyethyl)-λ^6-sulfanyl]ethyl}amino)-N′-hydroxy-1,2,5-oxadiazole-3-carboximidamide]: the IC50 came out at 20.9 nM.
For `C#Cc1cc(N/C(=N\O)c2nonc2NCCN=S(C)(C)=O)ccc1F` [Example 29, (Z)-4-((2-((dimethyl(oxo)-λ^6-sulfanylidene)amino)ethyl)amino)-N-(3-ethynyl-4-fluoro-phenyl)-N′-hydroxy-1,2,5-oxadiazole-3-carboximidamide], the 50% inhibitory concentration (IC50) is 26.5 nM.

A further test has as its target T1, IDO. Briefly: IDO Cell-Based LC/MS Assay. Conditions: Hela cells, 100 ng/mL recombinant human interferon-gamma, 20 hours, LC/MS readout.
Description: IDO Cell-Based LC/MS Assay
Materials: RPMI 1640 (phenol red free) (Invitrogen Cat. No. 11835030), Fetal Bovine Serum (Invitrogen Cat. No. 10099141), Penicillin-Streptomycin (Invitrogen Gibco Cat. No. 15140-122), recombinant human interferon-gamma (R&D system, Cat. No. 285-IF-100), 5% (w/v) trichloroacetic acid (Alfa Aesar Cat. No. All 156), DMSO (Sigma, Cat. No. D2650), 96 wells_compound plate (Axygen, Cat. No. WIPP02280), 96 wells_assay plate (Greiner, Cat. No. 655090)
The concentrations of test compounds varied from 5 μM to 0.76 nM with 3-fold dilution, 9 points, in duplicates.
Hela cells were seeded at 40,000 cells per well with RPMI/phenol red free media containing 10% FBS in a 96-well tissue culture plate. After adding compound to cells, 100 ng/mL of recombinant human interferon-gamma was added to activate IDO signaling. The cells were incubated for 20 hours in 37° C. incubator with 5% CO2. Compound treatment was stopped by adding 5% trichloroacetic acid. Subsequently, the cell plate was further incubated at 50° C. for 30 minutes. After precipitation, the supernatant was collected and measured by triple quadrupole mass spectrometer (AB Sciex 4000), coupled with HPLC Shimadzu EC 20 AD and autosampler CTC PAL. Curves are fit by XLFIT5 as % inhibition vs. log [compound concentration] using a 4 parameters logistic model 205.
as §1
With `CS(=N)(=O)NCCNc1nonc1/C(=N/O)Nc1ccc(F)c(C(F)(F)F)c1` (centres unmarked) [Example 14, (Z)—N-(4-fluoro-3-(trifluoromethyl)phenyl)-N′-hydroxy-4-((2-(methylsulfonoamidimidamido)ethyl)amino)-1,2,5-oxadiazole-3-carboximidamide], the IC50 stood at 20.1 nM.
Consider `CS(=N)(=O)NCCNc1nonc1/C(=N/O)Nc1ccc(F)c(Cl)c1` (centres unmarked) [Example 12, (Z)—N-(3-chloro-4-fluorophenyl)-N′-hydroxy-4-((2-(methylsulfonoimidamido)-ethyl)amino)-1,2,5-oxadiazole-3-carboximidamide], for which the IC50 came to 12.3 nM.
For `CC(CNS(C)(=N)=O)Nc1nonc1/C(=N/O)Nc1ccc(F)c(Br)c1` (centres unmarked) [Example 10, (Z)—N-(3-bromo-4-fluorophenyl)-N′-hydroxy-4-((1-(methylsulfonoimidamido)propan-2-yl)amino)-1,2,5-oxadiazole-3-carboximidamide], the IC50 worked out at 244 nM.
On to `CC(CNc1nonc1/C(=N/O)Nc1ccc(F)c(Br)c1)NS(C)(=N)=O` (centres unmarked) [Example 9, (Z)—N-(3-bromo-4-fluorophenyl)-N′-hydroxy-4-((2-(methylsulfonoimidamido)propyl)amino)-1,2,5-oxadiazole-3-carboximidamide], for which the IC50 was 123 nM.
Still for that read-out and setting: the figure for `CS(=N)(=O)NCCNc1nonc1C(=NO)Nc1ccc(F)c(Br)c1` (centres unmarked) [Example 6, (Z)—N-(3-bromo-4-fluorophenyl)-N′-hydroxy-4-((2-(methylsulfonoimidamido)ethyl)amino)-1,2,5-oxadiazole-3-carboximidamide] is 63.7 nM.
As to `CS(=N)(=O)NCCCNc1nonc1C(=NO)Nc1ccc(F)c(Br)c1` (centres unmarked) [Example 8, (Z)—N-(3-bromo-4-fluorophenyl)-N′-hydroxy-4-((3-(methylsulfonoimidamido)propyl)amino)-1,2,5-oxadiazole-3-carboximidamide], the IC50 stood at 18.6 nM.
Same read-out and setting: the figure for `CCS(=N)(=O)NCCNc1nonc1/C(=N/O)Nc1cccc(C(F)(F)F)c1` (centres unmarked) [Example 16, (Z)-4-((2-(ethylsulfonoimidamido)ethyl)amino)-N′-hydroxy-N-(3-(trifluoromethyl)phenyl)-1,2,5-oxadiazole-3-carboximidamide] is 298 nM; for `O=S1(=NCCNc2nonc2/C(=N/O)Nc2ccc(F)c(Br)c2)CCCC1` [Example 5, (Z)—N-(3-bromo-4-fluorophenyl)-N′-hydroxy-4-((2-((1-oxidotetrahydro-1λ^6-thiophen-1-ylidene)amino)ethyl)amino)-1,2,5-oxadiazole-3-carboximidamide] it is 195 nM.
